Assay results published in ChEMBL document CHEMBL1201862, “PubChem BioAssay data set” (2004).
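96-well plates; 48 h exposure; 5 concentrations. Endpoints by linear interpolation between flanking doses. Not reached: highest tested concentration assigned. GI50: concentration for 50% inhibition of growth.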 The source made the active and inactive calls. No stated cut-off is given here; in the data, active = GI50 up to about 1.1 µM and inactive = higher.

Tests used:
Assay in all cases: NCI anticancer screen, dose series, 48 h
HL-60 = system: HL-60
A549 = system: A549
SN12C = system: SN12C
EKVX = system: EKVX
MOLT-4 = system: MOLT-4
RPMI-8226 = system: RPMI-8226
SK-MEL-28 = system: SK-MEL-28
NCI-H23 = system: NCI-H23
SK-OV-3 = system: SK-OV-3
SF-268 = system: SF-268
HCT-116 = system: HCT-116
K562 = system: K562
Malme-3M = system: Malme-3M
NCI-H226 = system: NCI-H226
A498 = system: A498
OVCAR-4 = system: OVCAR-4

Compound	GI50 (HL-60)	GI50 (A549)	GI50 (SN12C)	GI50 (EKVX)	GI50 (MOLT-4)	GI50 (RPMI-8226)	GI50 (SK-MEL-28)	GI50 (NCI-H23)	GI50 (SK-OV-3)	GI50 (SF-268)	GI50 (HCT-116)	GI50 (K562)	GI50 (Malme-3M)	GI50 (NCI-H226)	GI50 (A498)	GI50 (OVCAR-4)
Cn1nc(-c2ccccc2)c(C(=O)/C=C/c2ccc(Cl)cc2)c(N2CCCC2)c1=O	1.92 µM (inactive)	4.36 µM (inactive)	5.94 µM (inactive)	11.7 µM (inactive)	2.38 µM (inactive)	2.7 µM (inactive)	3.76 µM (inactive)	2.89 µM (inactive)	4.99 µM (inactive)	4.61 µM (inactive)	2.56 µM (inactive)	2.66 µM (inactive)	–	–	–	–
[N-]=[N+]=Nc1ncnc2c1sc(=S)n2-c1ccccc1	84.9 µM (inactive)	> 100 µM (inactive)	> 100 µM (inactive)	> 100 µM (inactive)	> 100 µM (inactive)	> 100 µM (inactive)	> 100 µM (inactive)	> 100 µM (inactive)	> 100 µM (inactive)	> 100 µM (inactive)	> 100 µM (inactive)	> 100 µM (inactive)	> 100 µM (inactive)	> 100 µM (inactive)	78.9 µM (inactive)	> 100 µM (inactive)
C=CN1C(=O)[C@H](Oc2ccccc2)[C@@H]1c1ccccc1	–	26.8 µM (inactive)	32.7 µM (inactive)	47.8 µM (inactive)	36.6 µM (inactive)	20.3 µM (inactive)	36.4 µM (inactive)	21.7 µM (inactive)	32.1 µM (inactive)	37.2 µM (inactive)	24.9 µM (inactive)	36.3 µM (inactive)	63.2 µM (inactive)	44.4 µM (inactive)	71.4 µM (inactive)	–
CC1=NN(C(=O)c2ccc(Cl)cc2)C(=O)/C1=C/c1c(O)cc(O)c2ccccc12	> 100 µM (inactive)	> 100 µM (inactive)	> 100 µM (inactive)	> 100 µM (inactive)	> 100 µM (inactive)	> 100 µM (inactive)	> 100 µM (inactive)	> 100 µM (inactive)	> 100 µM (inactive)	> 100 µM (inactive)	> 100 µM (inactive)	> 100 µM (inactive)	> 100 µM (inactive)	–	> 100 µM (inactive)	> 100 µM (inactive)
Cc1ccc(NC(=O)CCc2n[nH]c(=S)o2)cc1	> 100 µM (inactive)	> 100 µM (inactive)	> 100 µM (inactive)	> 100 µM (inactive)	> 100 µM (inactive)	–	> 100 µM (inactive)	> 100 µM (inactive)	–	> 100 µM (inactive)	> 100 µM (inactive)	44.6 µM (inactive)	> 100 µM (inactive)	> 100 µM (inactive)	> 100 µM (inactive)	> 100 µM (inactive)
CN(C)CC/C(=N\Nc1ccc(Cl)cc1Cl)c1ccccc1	5.07 µM (inactive)	15 µM (inactive)	12.6 µM (inactive)	20.6 µM (inactive)	5.73 µM (inactive)	3.94 µM (inactive)	15.2 µM (inactive)	17 µM (inactive)	12.3 µM (inactive)	–	13.8 µM (inactive)	14.3 µM (inactive)	23.3 µM (inactive)	–	16.4 µM (inactive)	> 10 µM (inactive)
Nc1ncnc2c1ncn2C1OC(CSCc2ccc(Cl)cc2)C(O)C1O (stereo unspecified)	23.8 µM (inactive)	43.1 µM (inactive)	45.7 µM (inactive)	81.7 µM (inactive)	10.7 µM (inactive)	21.8 µM (inactive)	–	24.2 µM (inactive)	> 100 µM (inactive)	40.1 µM (inactive)	19.8 µM (inactive)	30 µM (inactive)	56.9 µM (inactive)	–	23.8 µM (inactive)	35.6 µM (inactive)
CC(C)(C)OC(=O)c1cccnc1/C=N/O	> 100 µM (inactive)	> 100 µM (inactive)	> 100 µM (inactive)	> 100 µM (inactive)	68.2 µM (inactive)	–	> 100 µM (inactive)	> 100 µM (inactive)	> 100 µM (inactive)	> 100 µM (inactive)	> 100 µM (inactive)	> 100 µM (inactive)	> 100 µM (inactive)	> 100 µM (inactive)	–	> 100 µM (inactive)
O=C1c2ccccc2C(=O)N1C/C=N/NS(=O)(=O)c1cccc([N+](=O)[O-])c1	> 100 µM (inactive)	> 100 µM (inactive)	> 100 µM (inactive)	> 100 µM (inactive)	> 100 µM (inactive)	> 100 µM (inactive)	–	> 100 µM (inactive)	–	> 100 µM (inactive)	> 100 µM (inactive)	> 100 µM (inactive)	> 100 µM (inactive)	–	> 100 µM (inactive)	> 100 µM (inactive)
C=C1C(=O)OC2/C=C(/C)C3CC(O)C(C)(CC(OC(=O)/C(C)=C/C)C12)O3 (stereo unspecified)	0.759 µM (active)	6.61 µM (inactive)	3.27 µM (inactive)	3.86 µM (inactive)	1.91 µM (inactive)	1.83 µM (inactive)	2.52 µM (inactive)	4.49 µM (inactive)	36.1 µM (inactive)	4.2 µM (inactive)	1.53 µM (inactive)	1.69 µM (inactive)	2.28 µM (inactive)	14.7 µM (inactive)	10.4 µM (inactive)	7.55 µM (inactive)
O=C(Nc1nc2ccccc2n1Cc1ccccc1)NC12CC3CC(CC(C3)C1)C2	> 100 µM (inactive)	71.9 µM (inactive)	82.8 µM (inactive)	> 100 µM (inactive)	> 100 µM (inactive)	> 100 µM (inactive)	79.3 µM (inactive)	42.9 µM (inactive)	27.9 µM (inactive)	14.4 µM (inactive)	30.4 µM (inactive)	> 100 µM (inactive)	39.6 µM (inactive)	51.6 µM (inactive)	–	20.7 µM (inactive)
CCOC(=O)NC(=O)c1cn(CCCOC(=O)NCCCCCCNC(=O)OCCCn2cc(C(=O)NC(=O)OCC)c(=O)[nH]c2=O)c(=O)[nH]c1=O	16.7 µM (inactive)	> 100 µM (inactive)	47.6 µM (inactive)	> 100 µM (inactive)	36.3 µM (inactive)	14.1 µM (inactive)	28.3 µM (inactive)	> 10 µM (inactive)	66.1 µM (inactive)	–	35.1 µM (inactive)	7.67 µM (inactive)	–	–	22.8 µM (inactive)	7.4 µM (inactive)
CNC1=Nc2ccc(Cl)cc2C(OP(=O)(N2CCOCC2)N2CCOCC2)=NC1	> 100 µM (inactive)	> 100 µM (inactive)	> 100 µM (inactive)	84.9 µM (inactive)	> 100 µM (inactive)	> 100 µM (inactive)	> 100 µM (inactive)	> 100 µM (inactive)	–	–	> 100 µM (inactive)	> 100 µM (inactive)	> 100 µM (inactive)	> 100 µM (inactive)	> 100 µM (inactive)	> 100 µM (inactive)
CCOC(=O)C1=C(c2ccccc2)NC(c2ccccc2)=C(C(=O)OCC)c2c1c(=O)cc[nH]c2=O	> 100 µM (inactive)	> 100 µM (inactive)	> 100 µM (inactive)	–	63.1 µM (inactive)	53.1 µM (inactive)	66.1 µM (inactive)	79.4 µM (inactive)	> 100 µM (inactive)	> 100 µM (inactive)	> 100 µM (inactive)	39.9 µM (inactive)	> 100 µM (inactive)	> 100 µM (inactive)	–	92.3 µM (inactive)
CC(=O)CC(=O)CCC(=O)Nc1cccc(C(F)(F)F)c1	> 100 µM (inactive)	> 100 µM (inactive)	> 100 µM (inactive)	> 100 µM (inactive)	> 100 µM (inactive)	> 100 µM (inactive)	–	> 100 µM (inactive)	> 100 µM (inactive)	> 100 µM (inactive)	> 100 µM (inactive)	> 100 µM (inactive)	> 100 µM (inactive)	> 100 µM (inactive)	> 100 µM (inactive)	> 100 µM (inactive)
Cn1cc(NC(=O)c2cc(NC(=O)CCCCCC(=O)Nc3cc(C(=O)Nc4cc(C(=O)NCCC(=N)N)n(C)c4)n(C)c3)cn2C)cc1C(=O)NCCC(=N)N	30 µM (inactive)	45.3 µM (inactive)	> 100 µM (inactive)	> 100 µM (inactive)	–	–	25.2 µM (inactive)	> 100 µM (inactive)	> 100 µM (inactive)	> 100 µM (inactive)	67.1 µM (inactive)	83.6 µM (inactive)	9.64 µM (inactive)	–	> 100 µM (inactive)	> 100 µM (inactive)
N#C/C(=C/c1cccc2ccccc12)C(=O)c1ccccc1	19.4 µM (inactive)	> 10 µM (inactive)	33.2 µM (inactive)	> 10 µM (inactive)	14.7 µM (inactive)	22.3 µM (inactive)	13.9 µM (inactive)	17.8 µM (inactive)	> 100 µM (inactive)	–	18.5 µM (inactive)	> 10 µM (inactive)	21.5 µM (inactive)	17.7 µM (inactive)	23.1 µM (inactive)	> 100 µM (inactive)
COc1cc2c(c(OC)c1OC)-c1ccc(SC)c(=O)cc1[C@@H](NC(=O)c1cccc([N+](=O)[O-])c1)CC2	< 0.01 µM (active)	–	0.0282 µM (active)	0.0386 µM (active)	0.0202 µM (active)	0.0208 µM (active)	0.0414 µM (active)	< 0.01 µM (active)	0.021 µM (active)	0.0214 µM (active)	0.0174 µM (active)	< 0.01 µM (active)	0.0161 µM (active)	< 0.01 µM (active)	0.0198 µM (active)	13.1 µM (inactive)
